{"source": "paper PMC11597202", "about": "“Novel Thiazole-Fused [4,5-g] or [5,4-g]Quinazolin-8-ones and Their Quinazoline Analogues: Synthesis and Biological Evaluation” (Pharmaceuticals, 2024); as to In vitro cytotoxic activity IC50, MBA-MB-231: 0.1-25 µM tested", "key": {"[1]": {"assay": "In vitro cytotoxic assay, MCF-7; also: 0.1-25 µM tested", "format": "cell-based", "details": "human, MCF-7 cells (breast cancer cell line)", "protocol": "(§1) Skin normal fibroblastic cells were purchased from Lonza (Basel, Switzerland). […] All culture media were supplemented by 10% of FBS, 1% of penicillin–streptomycin and 2 mM glutamine.\n(§2) Chemicals were solubilized in DMSO at a concentration of 10 mM (stock solution) and diluted in culture medium to the desired final concentrations. […] Cells were plated in 96-well plates (4000 cells/well). Twenty-four hours after seeding, the cells were exposed to chemicals. […] Image acquisition and analysis were performed using a Cellomics ArrayScan VTI/HCS Reader (ThermoScientific, Les Ulis, France). The survival percentages were calculated as the percentage of cell number after compound treatment over cell number after DMSO treatment. The relative IC50 values were calculated using the curve fitting XLfit 5.5.0.5 (idbs) integrated in Microsoft Excel as an add-on.\n(§3) 4.3.1. Cell culture. Skin normal fibroblastic cells are purchased from Lonza (Basel, Switzerland). Huh7- […]\n(§4) from ATCC (American Type Culture Collection). […]\n(§5) supplemented by 10% of FBS, 1% of penicillin-streptomycin and 2 mM glutamine.\n(§6) 4.3.2. Cytotoxic assay. Chemicals were solubilized in DMSO at a concentration of 10 mM (stock solution) and diluted in culture medium to the desired final concentrations. The dose effect cytotoxic assays (IC50 determination) were performed by increasing the concentrations of each chemical (final well […]\n(§7) Cells were plated in 96-well plates\n(§8) (4000 cells/well). Twenty-four hours after seeding, cells were exposed to chemicals. After 48h of treatment, cells were washed in PBS and fixed in cooled 90% ethanol/5% acetic acid for 20 min and the […]\n(§9) Image acquisition and analysis were performed using a Cellomics ArrayScan VTI/HCS Reader (ThermoScientific). The survival percentages were calculated as the percentage of cell number after compound treatment over cell number after DMSO treatment. The relative IC50 were calculated using the curve fitting XLfit 5.5.0.5 (idbs) integrated in Microsoft Excel as an add-on. The 4 Parameter Logistic Model or Sigmoidal Dose-Response Model describing the sigmoid-shaped response pattern was used (fit = (A+[(B-A)/(1+[(C/x)^D])]) where fit is the response and X is the tested concentration of the compound. The lower asymptote is A (also referred to as the bottom of the curve or lower plateau or the min) and the upper asymptote is B (also referred to as the top of the curve or upper plateau or the max). The slope of the linear part of the curve is described by the factor D. The parameter C is the concentration corresponding to the response midway between A and B. C is called “relative IC50” because it refers to the maximum response obtained by a […]\n(§10) The results are represented as the mean ± standard error (SE) calculated from at least three independent experiments."}, "seven tumor cell lines": {"tested_on": "seven tumor cell lines", "assay": "In vitro cytotoxic assay, whole panel of cancer cell lines", "format": "cell-based, human", "details": "Homo sapiens; lowest to highest IC50 among the seven cancer cell lines, 48 h; read-out: IC50 span over the cancer cell lines", "protocol": "as §1, §2, §3, §4, §5, §6, §7, §8, §9, §10"}, "[2]": {"assay": "In vitro cytotoxic assay, Caco-2", "format": "cell-based", "details": "human, Caco-2 cells (colon cancer cell line)", "protocol": "as §1, §2, §3, §4, §5, §6, §7, §8, §9, §10"}, "[3]": {"assay": "In vitro cytotoxic assay, MDA-MB-231", "format": "cell-based", "details": "human, MDA-MB-231 cells (breast cancer cell line); read-out: In vitro cytotoxic activity IC50, MBA-MB-231", "protocol": "as §1, §2, §3, §4, §5, §6, §7, §8, §9, §10"}, "[4]": {"assay": "In vitro cytotoxic assay, MDA-MB-468", "format": "cell-based", "details": "human, MDA-MB-468 cells (breast cancer cell line); read-out: In vitro cytotoxic activity IC50, MBA-MB4-68", "protocol": "as §1, §2, §3, §4, §5, §6, §7, §8, §9, §10"}, "[5]": {"assay": "In vitro cytotoxic assay, Huh7-D12", "format": "cell-based", "details": "human, Huh7-D12 cells (liver cancer cell line)", "protocol": "as §1, §2, §3, §4, §5, §6, §7, §8, §9, §10"}, "[6]": {"assay": "In vitro cytotoxic assay, PC-3", "format": "cell-based", "details": "human, PC-3 cells (prostate cancer cell line)", "protocol": "as §1, §2, §3, §4, §5, §6, §7, §8, §9, §10"}, "[7]": {"assay": "In vitro cytotoxic assay, HCT-116", "format": "cell-based", "details": "human, HCT-116 cells (colon cancer cell line)", "protocol": "as §1, §2, §3, §4, §5, §6, §7, §8, §9, §10"}}, "data": [{"compound": "N#Cc1nc2cc3c(=O)n(Cc4ccccc4)cnc3cc2s1", "note": "[Compound 5a, 7-Benzyl-8-oxo-7,8-dihydrothiazolo[4,5-g]quinazoline-2-carbonitrile]", "values": [{"measurement": "IC50 at 48 h", "setting": "[1]", "value": 8, "unit": "µM"}, {"measurement": "IC50", "setting": "seven tumor cell lines", "value": "7 to 62", "unit": "µM"}, {"measurement": "IC50 at 48 h", "setting": "[2]", "value": 10, "unit": "µM"}, {"measurement": "melting point", "value": "237 to 238", "unit": "°C"}, {"measurement": "IC50 at 48 h", "setting": "[3]", "value": "> 25", "unit": "µM"}, {"measurement": "IC50 at 48 h", "setting": "[4]", "value": 11, "unit": "µM"}, {"measurement": "IC50 at 48 h", "setting": "[5]", "value": "> 25", "unit": "µM"}, {"measurement": "IC50 at 48 h", "setting": "[6]", "value": 9, "unit": "µM"}, {"measurement": "IC50 at 48 h", "setting": "[7]", "value": 7, "unit": "µM"}]}, {"compound": "N#Cc1nc2cc3ncn(Cc4ccccc4)c(=O)c3cc2s1", "note": "[Compound 5b, 7-Benzyl-8-oxo-7,8-dihydrothiazolo[5,4-g]quinazoline-2-carbonitrile]", "values": [{"measurement": "IC50 at 48 h", "setting": "[1]", "value": 2, "unit": "µM"}, {"measurement": "IC50", "setting": "seven tumor cell lines", "value": "1 to 3", "unit": "µM"}, {"measurement": "IC50 at 48 h", "setting": "[2]", "value": 1, "unit": "µM"}, {"measurement": "melting point", "value": "217 to 218", "unit": "°C"}, {"measurement": "IC50 at 48 h", "setting": "[3]", "value": 3, "unit": "µM"}, {"measurement": "IC50 at 48 h", "setting": "[4]", "value": 1, "unit": "µM"}, {"measurement": "IC50 at 48 h", "setting": "[5]", "value": 3, "unit": "µM"}, {"measurement": "IC50 at 48 h", "setting": "[6]", "value": 2, "unit": "µM"}, {"measurement": "IC50 at 48 h", "setting": "[7]", "value": 2, "unit": "µM"}]}, {"compound": "N#Cc1nc2c(ccc3c(=O)n(Cc4ccccc4)cnc32)s1", "note": "[Compound 5c, 7-Benzyl-6-oxo-6,7-dihydrothiazolo[5,4-h]quinazoline-2-carbonitrile]", "values": [{"measurement": "IC50 at 48 h", "setting": "[1]", "value": 16, "unit": "µM"}, {"measurement": "IC50", "setting": "seven tumor cell lines", "value": "4 to 24", "unit": "µM"}, {"measurement": "IC50 at 48 h", "setting": "[2]", "value": 11, "unit": "µM"}, {"measurement": "melting point", "value": "273 to 274", "unit": "°C"}, {"measurement": "IC50 at 48 h", "setting": "[3]", "value": 24, "unit": "µM"}, {"measurement": "IC50 at 48 h", "setting": "[4]", "value": 10, "unit": "µM"}, {"measurement": "IC50 at 48 h", "setting": "[5]", "value": 17, "unit": "µM"}, {"measurement": "IC50 at 48 h", "setting": "[6]", "value": 12, "unit": "µM"}, {"measurement": "IC50 at 48 h", "setting": "[7]", "value": 4, "unit": "µM"}]}, {"compound": "N#Cc1nc2ccc3c(=O)n(Cc4ccccc4)cnc3c2s1", "note": "[Compound 5d, 7-Benzyl-6-oxo-6,7-dihydrothiazolo[4,5-h]quinazoline-2-carbonitrile]", "values": [{"measurement": "IC50 at 48 h", "setting": "[1]", "value": 12, "unit": "µM"}, {"measurement": "IC50", "setting": "seven tumor cell lines", "value": "7 to 18", "unit": "µM"}, {"measurement": "IC50 at 48 h", "setting": "[2]", "value": 9, "unit": "µM"}, {"measurement": "IC50 at 48 h", "setting": "[3]", "value": 14, "unit": "µM"}, {"measurement": "IC50 at 48 h", "setting": "[4]", "value": 11, "unit": "µM"}, {"measurement": "IC50 at 48 h", "setting": "[5]", "value": 18, "unit": "µM"}, {"measurement": "IC50 at 48 h", "setting": "[6]", "value": 11, "unit": "µM"}, {"measurement": "IC50 at 48 h", "setting": "[7]", "value": 7, "unit": "µM"}]}, {"compound": "COc1ccc(Nc2ncnc3cc4sc(C#N)nc4cc23)c(F)c1", "note": "[Compound 14a, 8-[(2-Fluoro-4-methoxyphenyl)amino]thiazolo[4,5-g]quinazoline-2-carbonitrile]", "values": [{"measurement": "melting point", "value": "259 to 260", "unit": "°C"}]}, {"compound": "COc1ccc(Nc2ncnc3cc4nc(C#N)sc4cc23)c(F)c1", "note": "[Compound 14b, 8-[(2-Fluoro-4-methoxyphenyl)amino]thiazolo[5,4-g]quinazoline-2-carbonitrile]", "values": [{"measurement": "melting point", "value": "255 to 256", "unit": "°C"}]}, {"compound": "COc1cccc2c1C(=O)c1c(O)c3c(c(O)c1C2=O)C[C@@](O)(C(=O)CO)C[C@@H]3O[C@H]1C[C@H](N)[C@H](O)[C@H](C)O1", "note": "[Doxo, Doxorubicin, reference compound]", "values": [{"measurement": "IC50 at 48 h", "setting": "[1]", "value": 0.05, "unit": "µM"}, {"measurement": "IC50 at 48 h", "setting": "[2]", "value": 0.03, "unit": "µM"}, {"measurement": "IC50 at 48 h", "setting": "[3]", "value": 0.02, "unit": "µM"}, {"measurement": "IC50 at 48 h", "setting": "[4]", "value": 0.04, "unit": "µM"}, {"measurement": "IC50 at 48 h", "setting": "[5]", "value": 0.03, "unit": "µM"}, {"measurement": "IC50 at 48 h", "setting": "[6]", "value": 0.08, "unit": "µM"}, {"measurement": "IC50 at 48 h", "setting": "[7]", "value": 0.05, "unit": "µM"}]}, {"compound": "CC(=O)O[C@H]1C(=O)[C@@]2(C)[C@H]([C@H](OC(=O)c3ccccc3)[C@]3(O)C[C@H](OC(=O)[C@H](O)[C@@H](NC(=O)c4ccccc4)c4ccccc4)C(C)=C1C3(C)C)[C@]1(OC(C)=O)CO[C@@H]1C[C@@H]2O", "note": "[Taxol, reference compound]", "values": [{"measurement": "IC50 at 48 h", "setting": "[1]", "value": 0.006, "unit": "µM"}, {"measurement": "IC50 at 48 h", "setting": "[2]", "value": 0.02, "unit": "µM"}, {"measurement": "IC50 at 48 h", "setting": "[3]", "value": 0.01, "unit": "µM"}, {"measurement": "IC50 at 48 h", "setting": "[4]", "value": 0.003, "unit": "µM"}, {"measurement": "IC50 at 48 h", "setting": "[5]", "value": 0.016, "unit": "µM"}, {"measurement": "IC50 at 48 h", "setting": "[6]", "value": 0.004, "unit": "µM"}, {"measurement": "IC50 at 48 h", "setting": "[7]", "value": 0.003, "unit": "µM"}]}]}
